Values quoted from earlier work, collected in patent publication US8618066B1 (priority 2003, dated 2013).
“Also recorded” adds a separate entry of the source.

Tested on: Gram+ & Gram− bacteria, fungi, virus, mammalian/cancer cells
Settings: cited from earlier work

| Substance | Activity |
| --- | --- |
| Ginkbilobin: source Ginkgo (ANTAFVSSAHNTQKIPAGAPFNRNLRAMLADLRQNAAFAG; Ginkbilobin; listed as Ginkgo biloba) | Gram+ & Gram−, Virus, Fungi |
| HNP-6 Defensin: peptide, source Human (STRAFTCHCRRSCYSTEYSYGTCTVMGINHRFCCL; HNP-6 Defensin; listed as Homo sapiens) | Gram+ & Gram−, Fungi |
| Termicin: peptide, source Pseudacanthotermes spiniger (ACNFQSCWATCQAQHSIYFRRAFCDRSQCKCVFVRG; Pseudacanthotermes spiniger; Termicin) | Gram+, Fungi |
| Skin peptide tyrosine-tyrosine: peptide, source Two-colored leaf frog | Gram+ & Gram−, Fungi |
| SEQ ID No. 25: synthetic antifungal peptide, Table 1 (FRF) | Fungi |
| SEQ ID No. 177: synthetic antifungal peptide, Table 1 (GYFSYPHGNLF; listed as Glomerella cingulata) | Fungi |
| Lactoferricin B: peptide, source Bovine (FKCRRWQWRMKKLGAPSITCVRRAF; Lactoferricin B; listed as Bos taurus) | Gram+ & Gram−, Virus, Fungi, |
| SEQ ID No. 31: synthetic antifungal peptide, Table 1 (FHLRF) | Fungi |
| Tachystatin A: peptide, source Horseshoe Crab (YSRCQLQGFNCVVRSYGLPTIPCCRGLTCRSYFPGSTYGRCQRY; Tachystatin A Peptide; listed as Tachypleus tridentatus) | Gram+ & Gram−, Fungi |
| Aurein 1.1: peptide, source Southern bell frog (GLFDIIKKIAESI; Aurein 1.1; listed as Litoria raniformis) | Gram+ & Gram−, Fungi |
| PN-AMP: peptide, source Japenese morning glory | Gram+, Fungi |
| Pseudo-hevein (Minor hevin): peptide, source Para rubber tree (EQCGRQAGGKLCPNNLCCSQYGWCGSSDDYCSPSKNCQSNCKGGG; Pseudo-hevein (Minor hevein); listed as Hevea brasiliensis) | Fungi |
| Protegrin 5: peptide, source Pig (RGGRLCYCRPRFCVCVGR; Protegrin 5; listed as Sus scrofa) | Gram+ & Gram−, Virus, Fungi |
| SEQ ID No. 176: synthetic antifungal peptide, Table 1 (CYRFTW) | Fungi |
| SEQ ID No. 26: synthetic antifungal peptide, Table 1 (LRF) | Fungi |
| SEQ ID No. 30: synthetic antifungal peptide, Table 1 (WLRF) | Fungi |
| Anti-fungal protein 1 (pafp-s): source Phytolacca Americana (AGCIKNGGRCNASAGPPYCCSSYCFQIAGQSYGVCKNR; listed as Phytolacca americana) | Fungi |
| SEQ ID No. 36: synthetic antifungal peptide, Table 1 (KRKLRF) | Fungi |
| Indolicidin: peptide, source Bos Taurus (ILPWKWPWWPWRR; listed as Bos taurus) | Gram+ & Gram−, Virus, Fungi |
| Alpha-basrubrin (Fragment): source Malabar spinach (GADFQECMKEHSQKQHQHQG; Alpha-basrubrin (Fragment); listed as Basella alba) | Virus, Fungi |
| Nigrocin 2: peptide, source Rana nigromaculata (GLLSKVLGVGKKVLCGVSGLC; Nigrocin 2; listed as Rana nigromaculata) | Gram+ & Gram−, Fungi |
| Histone H2B-1 (HLP-1) (Fragment): source Rainbow trout (PDPAKTAPKKGSKKAVTKA; Oncorhynchus mykiss; Histone H2B-1(HLP-1)(Fragment)) | Gram+ & Gram−, Fungi |
| SEQ ID No. 186: synthetic antifungal peptide, Table 1 (MPSTAASTRVPQTTMNFNGYCVVM; listed as Neurospora crassa) | Fungi |
| SEQ ID No. 27: synthetic antifungal peptide, Table 1 (WRF) | Fungi |
| Peptide PGQ: peptide, source African clawed frog (GVLSNVIGYLKKLGTGALNAVLKQ; Peptide PGQ; listed as Xenopus laevis) | Gram+ & Gram−, Fungi |
| SEQ ID No. 175: synthetic antifungal peptide, Table 1 (WTFRYC) | Fungi |

| Substance | Activity |
| --- | --- |
| MUC7 20- Mer: peptide, source Human (LAHQKPFIRKSYKCLHKRCR; MUC7 20-Mer; listed as Homo sapiens) | Gram+ & Gram−, Fungi |
| Histatin 3: peptide, source Human (DSHAKRHHGYKRKFHEKHHSHRGYRSNYLYDN; Histatin 3; listed as Homo sapiens) | Gram+ & Gram−, Fungi |
| AMP2 (MJ-AMP2): peptide, source Garden four-o'clock (CIGNGGRCNENVGPPYCCSGFCLRQPNQGYGVCRNR; antimicrobial peptidic agent2 (MJ-antimicrobial peptidic agent2); listed as Mirabilis jalapa) | Gram+, Fungi |
| Seminalplasmin: peptide, source Bovine (SDEKASPDKHHRFSLSRYAKLANRLANPKLLETFLSKWIGDRGNRSVK; Seminalplasmin; listed as Bos taurus) | Gram+ & Gram−, Fungi,; also recorded: Mammalian cells |
| SEQ ID No. 184: synthetic antifungal peptide, Table 1 (YMPQGPRLNLWHW) | Fungi |
| SEQ ID No. 33: synthetic antifungal peptide, Table 1 (VFKLRF) | Fungi |
| SEQ ID No. 45: synthetic antifungal peptide, Table 1 (TFKLRF) | Fungi |
| HNP-4 Defensin: peptide, source Human (VCSCRLVFCRRTELRVGNCLIGGVSFTYCCTRV; HNP-4 Defensin; listed as Homo sapiens) | Gram+ & Gram−, Fungi |
| PW2: peptide, source Synthetic (HPLKQYWWRPSI; Synthetic PW2) | Fungi |
| Protegrin 2: peptide, source Pig (RGGRLCYCRRRFCICV; Protegrin 2; listed as Sus scrofa) | Gram+ & Gram−, Virus, Fungi |
| Tritrpticin: peptide, source Synthetic (VRRFPWWWPFLRR; Synthetic Tritrpticin) | Gram+ & Gram−, Fungi |
| SEQ ID No. 185: synthetic antifungal peptide, Table 1 (MSPSTKNIPAPVAGARAGPIHYCVIM; listed as Magnaporthe grisea) | Fungi |
| SEQ ID No. 39: synthetic antifungal peptide, Table 1 (FHFKLRF) | Fungi |
| Cecropin A: peptide, source Nocutuid moth (RWKVFKKIEKVGRNIRDGVIKAAPAIEVLGQAKAL; Cecropin A; listed as Heliothis virescens) | Gram+ & Gram−, Fungi |
| SEQ ID No. 183: synthetic antifungal peptide, Table 1 (YMPQGPKLQLWH) | Fungi |
| SEQ ID No. 181: synthetic antifungal peptide, Table 1 (YNLEPQGPKLQLWHW) | Fungi |
| SEQ ID No. 182: synthetic antifungal peptide, Table 1 (YMPQGPKLQLFHW) | Fungi |
| Ib-AMP3: peptide, source Impatiens balsamina (RHRCCAWGPGRKYCKRWC; Ib-antimicrobial peptidic agent3; listed as Impatiens balsamina) | Gram+, Fungi |
| Ranalexin: peptide, source Bull frog (FLGGLIKIVPAMICAVTKKC; Ranalexin; listed as Rana catesbeiana) | Gram+ & Gram−, Fungi |
| Hepcidin 20: peptide, source Human (ICIFCCGCCHRSKCGMCCKT; Hepcidin 20; listed as Homo sapiens) | Fungi |
| Lingual antimicrobial peptide: peptide, source Bovine (GFTQGVRNSQSCRRNKGICVPIRCPGSMRQIGTCLGAQVKCCRRK; Lingual antimicrobial peptide; listed as Bos taurus) | Gram+ & Gram−, Fungi |
| FRLKFHF [SEQ ID No. 197] | Gram+ & Gram−, Fungi |
| Brevinin-1BB: peptide, source Rio Grande leopard frog (FLPAIAGMAAKFLPKIFCAISKKC; Brevinin-1BB; listed as Rana berlandieri) | Gram+ & Gram−, Fungi |
| SEQ ID No. 29: synthetic antifungal peptide, Table 1 (FLRF) | Fungi |
| BMAP-34: peptide, source Bovine (GLFRRLRDSIRRGQQKILEKARRIGERIKDIFRG; BMAP-34; listed as Bos taurus) | Gram+ & Gram−, Fungi |

Same assay, conditions: classes of organisms/cells the peptide is active against; cited from earlier work

| Substance | Activity |
| --- | --- |
| Melittin B | Gram+ & Gram−, Fungi,; also recorded: Mammalian cells |
| Ponericin G!: peptide, source Ponerine ant (GWKDWAKKAGGWLKKKGPGMAKAALKAAMQ; Ponericin G1; listed as Pachycondyla goeldii) | Gram+ & Gram−, Fungi |
| Androctonin: peptide, source Androctonus Australis (RSVCRQIKICRRRGGCYYKCTNRPY; listed as Androctonus australis) | Gram+ & Gram−, Fungi |
| Opistoporin 2: peptide, source African yellow leg scorpion (GKVWDWIKSTAKKLWNSEPVKELKNTALNAAKNFVAEKIGATPS; Opistoporin 2; listed as Opistophthalmus carinatus) | Gram+ & Gram−, Fungi,; also recorded: Mammalian cells |
| Gomesin: peptide, source Synthetic (QCRRLCYKQRCVTYCRGR; Synthetic Gomesin) | Gram+ & Gram−, Fungi,; also recorded: Mammalian cells |
